Measurements from PubChem BioAssay (NCI).
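Compound exposure: 48 hours, 5 concentrations, 96-well plates. TGI is the concentration that stops growth completely.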

Tests used:
Test in all cases: NCI-60 cell line screen, 48 h
[1] = tested on: CCRF-CEM leukemia
[2] = tested on: A549 NSCLC
[3] = tested on: RXF 393 renal
[4] = tested on: TK-10 renal
[5] = tested on: ACHN renal
[6] = tested on: NCI-H23 lung
[7] = tested on: SK-OV-3 ovarian
[8] = tested on: MOLT-4 leukemia
[9] = tested on: SK-MEL-28 melanoma
[10] = tested on: OVCAR-8 ovarian
[11] = tested on: NCI-H460 lung
[12] = tested on: SW-620 colon
[13] = tested on: SF-268 CNS
[14] = tested on: NCI-H226 lung
[15] = tested on: 786-0 renal
[16] = tested on: NCI-H522 lung
[17] = tested on: MDA-MB-231 breast
[18] = tested on: PC-3 prostate
[19] = tested on: MDA-MB-435

Compound: C#CC1(O)CCC2[C@@H]3CCc4cc(Oc5nc(F)nc(-c6c7ccccc7cn6C)n5)ccc4C3CC[C@@]21C (some centres not stated)
- TGI [1]: > 67 µM
- TGI [2]: > 100 µM
- TGI [3]: > 100 µM
- TGI [4]: > 100 µM
- TGI [5]: > 100 µM
- TGI [6]: > 100 µM
- TGI [7]: > 100 µM
- TGI [8]: > 100 µM
- TGI [9]: > 100 µM
- TGI [10]: > 100 µM
- TGI [11]: > 100 µM
- TGI [12]: > 100 µM
- TGI [13]: > 100 µM
- TGI [14]: > 100 µM
- TGI [15]: > 100 µM
- TGI [16]: > 100 µM

Compound: CCCC1(CCC)c2cc(/C=N\O)ccc2-c2ccc(-c3ccc(C(C)(C)C)cc3)cc21
- TGI [1]: 68.8 µM
- TGI [17]: 39.7 µM
- TGI [2]: > 100 µM
- TGI [4]: > 100 µM
- TGI [5]: > 100 µM
- TGI [6]: > 100 µM
- TGI [7]: > 100 µM
- TGI [8]: 60.9 µM
- TGI [9]: 92.6 µM
- TGI [10]: > 100 µM
- TGI [11]: > 100 µM
- TGI [12]: > 100 µM
- TGI [13]: > 100 µM
- TGI [18]: > 100 µM
- TGI [15]: > 100 µM

Compound: COc1ccc2nc3n(c2c1)C(=O)c1ccccc1-3
- TGI [1]: > 100 µM
- TGI [2]: > 100 µM
- TGI [3]: > 100 µM
- TGI [4]: > 100 µM
- TGI [5]: > 100 µM
- TGI [6]: > 100 µM
- TGI [7]: > 100 µM
- TGI [8]: > 100 µM
- TGI [9]: > 100 µM
- TGI [10]: > 100 µM
- TGI [11]: > 100 µM
- TGI [12]: > 100 µM
- TGI [13]: > 100 µM
- TGI [14]: > 100 µM
- TGI [18]: > 100 µM
- TGI [15]: > 100 µM
- TGI [16]: > 100 µM

Compound: COc1cc2c(cc1C1=NC(C)(C)CO1)OCO2
- TGI [1]: > 100 µM
- TGI [2]: > 100 µM
- TGI [3]: > 100 µM
- TGI [4]: > 100 µM
- TGI [5]: > 100 µM
- TGI [6]: > 100 µM
- TGI [7]: > 100 µM
- TGI [8]: > 100 µM
- TGI [9]: > 100 µM
- TGI [10]: > 100 µM
- TGI [11]: > 100 µM
- TGI [12]: > 100 µM
- TGI [13]: > 100 µM
- TGI [14]: > 100 µM
- TGI [15]: > 100 µM
- TGI [16]: > 100 µM

Compound: COc1ccc(-n2c(=O)n(-c3ccccc3)c(=O)n2-c2ccc(OC)cc2)cc1
- TGI [1]: > 100 µM
- TGI [17]: > 100 µM
- TGI [2]: > 100 µM
- TGI [3]: > 100 µM
- TGI [4]: > 100 µM
- TGI [5]: > 100 µM
- TGI [6]: > 100 µM
- TGI [7]: > 100 µM
- TGI [8]: > 100 µM
- TGI [9]: > 100 µM
- TGI [10]: > 100 µM
- TGI [19]: > 100 µM
- TGI [12]: > 100 µM
- TGI [14]: > 100 µM
- TGI [18]: > 100 µM
- TGI [15]: > 100 µM
- TGI [16]: > 100 µM

Compound: CCCN(CCC)c1c([N+](=O)[O-])cc(C(=O)N(CCO)CCO)cc1[N+](=O)[O-]
- TGI [1]: > 100 µM
- TGI [2]: > 100 µM
- TGI [4]: > 100 µM
- TGI [5]: > 100 µM
- TGI [6]: > 100 µM
- TGI [7]: > 100 µM
- TGI [8]: > 100 µM
- TGI [9]: > 100 µM
- TGI [10]: > 100 µM
- TGI [11]: > 100 µM
- TGI [13]: > 100 µM
- TGI [14]: > 100 µM
- TGI [15]: > 100 µM
- TGI [16]: > 100 µM

Compound: CC(=O)N(O)Cc1ccccc1
- TGI [1]: > 100 µM
- TGI [2]: > 100 µM
- TGI [3]: > 100 µM
- TGI [4]: > 100 µM
- TGI [5]: > 100 µM
- TGI [6]: > 100 µM
- TGI [7]: > 100 µM
- TGI [8]: > 100 µM
- TGI [9]: > 100 µM
- TGI [10]: > 100 µM
- TGI [11]: > 100 µM
- TGI [12]: > 100 µM
- TGI [13]: > 100 µM
- TGI [14]: > 100 µM
- TGI [15]: > 100 µM
- TGI [16]: > 100 µM

Compound: CCOC(=O)C1([Se]c2ccccc2)CCCC1=O (configuration not stated)
- TGI [1]: 56.8 µM
- TGI [2]: > 100 µM
- TGI [3]: 21.3 µM
- TGI [4]: > 100 µM
- TGI [5]: 43.2 µM
- TGI [6]: 33.4 µM
- TGI [7]: > 100 µM
- TGI [8]: 57.1 µM
- TGI [9]: 41.9 µM
- TGI [10]: 30.5 µM
- TGI [11]: > 100 µM
- TGI [13]: 27.4 µM
- TGI [14]: 74.8 µM
- TGI [15]: 28.4 µM
- TGI [16]: 15.5 µM

Compound: O=c1[nH]c(=O)n(C2OC(CO)C(O)C2O)cc1OCC(F)(F)F (configuration not stated)
- TGI [1]: > 100 µM
- TGI [2]: > 100 µM
- TGI [3]: > 100 µM
- TGI [4]: > 100 µM
- TGI [5]: > 100 µM
- TGI [6]: > 100 µM
- TGI [7]: > 100 µM
- TGI [8]: > 100 µM
- TGI [9]: > 100 µM
- TGI [10]: > 100 µM
- TGI [11]: > 100 µM
- TGI [12]: > 100 µM
- TGI [13]: > 100 µM
- TGI [14]: > 100 µM
- TGI [15]: > 100 µM
- TGI [16]: > 100 µM

Compound: O=C1CSC2=NC3=C(CSC/C3=C\c3ccccc3)C(c3ccccc3)N12 (configuration not stated)
- TGI [1]: > 100 µM
- TGI [17]: > 100 µM
- TGI [2]: > 100 µM
- TGI [4]: > 100 µM
- TGI [5]: > 100 µM
- TGI [6]: > 100 µM
- TGI [7]: > 100 µM
- TGI [8]: > 100 µM
- TGI [9]: > 100 µM
- TGI [10]: > 100 µM
- TGI [11]: > 100 µM
- TGI [19]: > 100 µM
- TGI [12]: > 100 µM
- TGI [13]: > 100 µM
- TGI [14]: > 100 µM
- TGI [18]: > 100 µM
- TGI [15]: > 100 µM

Compound: CCOC(=O)c1c(N2CCCC2)ncn(C)c1=S
- TGI [1]: > 100 µM
- TGI [17]: > 100 µM
- TGI [2]: > 100 µM
- TGI [3]: > 100 µM
- TGI [4]: > 100 µM
- TGI [5]: > 100 µM
- TGI [6]: > 100 µM
- TGI [8]: > 100 µM
- TGI [9]: > 100 µM
- TGI [10]: > 100 µM
- TGI [11]: > 100 µM
- TGI [19]: > 100 µM
- TGI [12]: > 100 µM
- TGI [13]: > 100 µM
- TGI [14]: > 100 µM
- TGI [18]: > 100 µM
- TGI [15]: > 100 µM
- TGI [16]: > 100 µM
